Laboratory results: paper PMC8906844 (Organic & biomolecular chemistry, 2021)

Tests used:
pKa measurement = assay type: physicochemical; conditions: weak diprotic acid
LAR = LAR (Homo sapiens, UniProt P10586); conditions: 22 °C and pH 6.5; originally obtained; cited from earlier work
Chain of LAR (P10586 30-1907): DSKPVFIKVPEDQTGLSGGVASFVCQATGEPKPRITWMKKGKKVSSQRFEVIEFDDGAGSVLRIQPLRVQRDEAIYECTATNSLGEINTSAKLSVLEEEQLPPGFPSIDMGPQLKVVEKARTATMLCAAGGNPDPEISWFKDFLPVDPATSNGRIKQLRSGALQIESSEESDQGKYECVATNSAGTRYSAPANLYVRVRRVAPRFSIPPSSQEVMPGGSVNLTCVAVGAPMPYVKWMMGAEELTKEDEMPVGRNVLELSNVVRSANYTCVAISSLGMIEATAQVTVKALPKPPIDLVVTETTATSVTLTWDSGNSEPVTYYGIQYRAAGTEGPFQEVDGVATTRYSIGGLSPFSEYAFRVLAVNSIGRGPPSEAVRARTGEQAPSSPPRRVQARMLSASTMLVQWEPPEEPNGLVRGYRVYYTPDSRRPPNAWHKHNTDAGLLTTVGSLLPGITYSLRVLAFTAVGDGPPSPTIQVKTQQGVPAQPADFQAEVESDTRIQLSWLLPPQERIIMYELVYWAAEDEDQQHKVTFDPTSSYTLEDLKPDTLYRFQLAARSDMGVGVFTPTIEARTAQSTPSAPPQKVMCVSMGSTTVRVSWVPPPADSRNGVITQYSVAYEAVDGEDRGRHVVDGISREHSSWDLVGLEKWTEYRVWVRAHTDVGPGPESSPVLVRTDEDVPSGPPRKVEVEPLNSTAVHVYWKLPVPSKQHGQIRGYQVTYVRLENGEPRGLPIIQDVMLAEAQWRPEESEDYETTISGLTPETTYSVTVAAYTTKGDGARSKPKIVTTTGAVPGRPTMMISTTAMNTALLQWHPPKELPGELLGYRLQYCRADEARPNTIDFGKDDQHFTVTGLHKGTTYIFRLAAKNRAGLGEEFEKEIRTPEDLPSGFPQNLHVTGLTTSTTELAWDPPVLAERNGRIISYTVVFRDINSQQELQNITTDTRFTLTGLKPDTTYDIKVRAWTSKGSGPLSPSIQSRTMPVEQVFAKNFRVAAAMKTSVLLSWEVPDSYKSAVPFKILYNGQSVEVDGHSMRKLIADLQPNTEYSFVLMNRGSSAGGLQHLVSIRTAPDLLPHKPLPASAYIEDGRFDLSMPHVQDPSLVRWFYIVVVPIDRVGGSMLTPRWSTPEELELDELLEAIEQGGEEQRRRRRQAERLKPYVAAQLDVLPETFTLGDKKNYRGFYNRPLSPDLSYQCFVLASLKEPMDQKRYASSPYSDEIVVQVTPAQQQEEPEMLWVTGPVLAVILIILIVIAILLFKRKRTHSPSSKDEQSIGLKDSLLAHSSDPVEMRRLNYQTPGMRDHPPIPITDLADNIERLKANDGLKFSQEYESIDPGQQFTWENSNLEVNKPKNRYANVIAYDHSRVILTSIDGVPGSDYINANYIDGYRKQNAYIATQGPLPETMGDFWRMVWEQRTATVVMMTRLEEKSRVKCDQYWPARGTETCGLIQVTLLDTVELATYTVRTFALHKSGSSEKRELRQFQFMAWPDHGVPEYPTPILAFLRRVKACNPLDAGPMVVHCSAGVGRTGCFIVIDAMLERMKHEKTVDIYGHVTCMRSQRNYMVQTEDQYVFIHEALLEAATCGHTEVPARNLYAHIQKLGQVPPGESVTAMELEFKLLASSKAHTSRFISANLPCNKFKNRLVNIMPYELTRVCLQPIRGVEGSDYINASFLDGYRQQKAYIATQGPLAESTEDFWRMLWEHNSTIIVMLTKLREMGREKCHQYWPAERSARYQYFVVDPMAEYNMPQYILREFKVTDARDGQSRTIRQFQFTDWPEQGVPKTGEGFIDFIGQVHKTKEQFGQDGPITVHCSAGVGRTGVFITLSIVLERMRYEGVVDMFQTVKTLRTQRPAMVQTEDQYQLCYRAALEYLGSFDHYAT

pKa (pKa measurement; pKa (first), first value): 5.42
pKa (pKa measurement; pKa (second), second value): 6.6
Compound: CC1(C)Cc2c(O)c(C=O)c3c(c2C1)C(=O)OC(O)C3 (stereo not drawn) [illudalic acid]
t^∞1/2 (LAR): 0.5 min
